Assay results from US9556217B2, “Amphiphilic compounds” (WISCONSIN ALUMNI RESEARCH FOUNDATION, priority 2012, dated 2017).
Where two headings read alike, the source gives them in different places.

Experiments:
[1] = Critical micelle concentration (fluorescent dye solubilization); type: physicochemical
From the text: The “Critical Micelle Concentration” (CMC) refers to the concentration of a detergent (e.g., an amphiphile as described herein) in an aqueous solution at which the detergent molecules self-assemble into micelles. Below the CMC, detergents are mostly monomeric; above the CMC, micelle concentration increases linearly with detergent concentration. The CMC is dependent upon many factors and is detergent-specific. The CMC of a detergent can be determined experimentally by measuring the solubilization of a water-insoluble dye or fluorophore while varying the concentration of detergent. A CMC may also be determined by measuring the diminution of the surface tension of an aqueous solution as a function of detergent concentration (CMCs determined by either method correlate with each other). The CMC is determined by extrapolating the plot of solubilization vs. concentration (or surface tension vs. concentration) in the two linear regions above and below the CMC. Where the two lines intersect is the CMC. The CMC can also be determined by the method of Nugebauer, J. M. (1990), Methods in Enzymology, 182:239-253.
The four compounds were readily prepared on a multi-gram scale (see Examples 1 and 2 below, and FIGS. 13-15), as is necessary if they are to serve as research tools. All four are highly soluble in aqueous solution (>20 wt %) and have relatively low critical micelle concentrations (CMC; determined by fluorescent dye solubilization).

[2] = Hydrodynamic radius of micelles by dynamic light scattering; type: physicochemical; settings: Mean ± SD, n = 5
From the text: These values are somewhat smaller than the CMC of DDM, which indicates a strong tendency of the new agents to self-assemble, and which can be advantageous for IMP handling because detrimental levels of non-micellar amphiphile can be avoided. Table 1 provides the hydrodynamic radius (Rh) of the micelles formed by each amphiphile, as determined by dynamic light scattering (DLS). The micelles formed by GLC amphiphiles are slightly smaller than those formed by DDM, while the micelles formed by GDN are slightly larger.

wild type β2AR (β2AR WT) = molecular target: T1, wild type β2AR (β2AR WT) (Homo sapiens, UniProt P07550); assay: β2AR WT activity after extraction ([3H]-dihydroalprenolol binding); type: biochemical
T1 construct: made in house; host or cells: Sf9 insect cells (baculovirus); lysed cells and membranes extracted directly with amphiphile
Description: In the examples discussed above, conventional detergents such as DDM were used to extract IMPs from the membrane, and then in most cases the solution of detergent-solubilized protein was diluted with amphiphile-containing solutions to evaluate the new agents. With this approach it is possible that the small amount of residual conventional detergent could affect protein stability. To exclude this possibility, GLC-3 and GDN were used to extract wild type β2AR (β2AR WT) (Kobilka, Trends in Pharmacological Sciences 2011, 32, 213-218) from the membrane. Receptor activity was measured via a binding assay involving the antagonist [^3H]-dihydroalprenolol. […] GDN is therefore highly suitable for GPCR extraction.
(§1) A gene encoding amino-terminally FLAG epitope tagged β2AR was expressed in Sf9 cells by baculovirus, with no ligand present during culture. Cells were infected at a density of 4×10^6 cells/mL and then cultured for 48 hours prior to harvesting by centrifugation. Cells were resuspended and lysed by osmotic shock with a low ionic strength buffer (20 mM Tris pH 7.5, 1 mM EDTA). The lysed cells were aliquoted 35 mg per aliquot, then frozen. For extraction tests, 300 μL of solubilization buffer (20 mM HEPES pH 7.5, 100 mM NaCl) containing each amphiphile was added to each aliquot, which was then homogenized by pipet followed by grinding with a glass dounce tissue homogenizer. After two-hour incubation at 4° C., samples were centrifuged at maximum speed in a tabletop microcentrifuge to pellet insoluble material. Supernatant was removed and assayed for protein concentration by DC protein assay (Bio-Rad).
The amount of functional receptor was quantified by incubation for 1 hour with 10 nM 3H dihydroalprenolol. Samples were then separated by gel filtration over G-50 resin and radioactivity was quantified by liquid scintillation. Nonspecific binding was measured in the presence of 10 μM alprenolol. Assays were performed in triplicate at time points indicated. G-50 filtration was performed in buffer containing 20 mM HEPES pH 7.5, 100 mM NaCl, 10-fold CMC of the detergent tested. All binding assays were performed with ice cold buffers.

[3] = tested on: δ-opioid receptor-T4L fusion (δOR-T4L); assay: δOR-T4L activity after solubilization ([3H]-diprenorphine binding); type: biochemical; settings: extracted with 1.0 wt % of amphiphile
From the text: We turned to a δ-opioid receptor-T4L fusion (δOR-T4L), another GPCR, to compare GDN with the recently reported amphiphile MNG-3 (P. S. Chae, et al., Nat. Methods 2010, 7, 1003-1008), which has proven to be essential for crystallization of several other GPCR constructs (Rasmussen, et al., Nature 2011, 469, 236-240; Rosenbaum, et al., Nature 2011, 469, 175-180; Rasmussen, et al., Nature 2011, 477, 540-541; Kruse, et al., Nature 2012, 482, 552-556; Haga, et al., Nature 2012, 482, 547-551). […] The ability of the new amphiphiles to stabilize membrane proteins thus allows for the ability to perform analyses and structural studies that could not be performed with other detergents such as DDM because harsher detergents (e.g., DDM) can remove important lipid moieties from the proteins, causing them to denature and rapidly loose activity.
FLAG epitope tagged δOR-T4L was expressed in Sf9 insect cells using baculovirus particles generated by the pFastBac vector system (Invitrogen). Insect cells were infected and cultured as for the β2AR and cells were lysed by osmotic shock as done for cells expressing β2AR. Lysed cells were used for extraction tests by adding 40 mg of cells to 200 μL of solubilization buffer (20 mM HEPES pH 7.5, 100 mM NaCl) containing each amphiphile. […] The amount of functional receptor after solubilization was quantified by incubation for 1 hour with 10 nM 3H diprenorphine. […]

[4] = molecular target: T2, CMP-Sia fusion protein bearing green fluorescent protein (GFP) (Mus musculus, UniProt Q61420); assay: CMP-Sia-GFP fusion solubilization (fluorescence); settings: 1 wt %, 1 hr at 4° C., total fluorescence
T2 construct: made in house; host or cells: Saccharomyces cerevisiae FGY217
Description: (§2) The favorable MelB extraction performance of GDN led to the examination of this amphiphile for extraction of other IMPs. […] DDM and GDN were used to extract a CMP-Sia fusion protein bearing green fluorescent protein (GFP) at the C-terminus, after expression in Saccharomyces cerevisiae; the amount of solubilized protein was estimated by total fluorescence. GDN (2 wt %), DDM (1 wt %) and OG (1 wt %) gave ˜70%, ˜80% and ˜50% extraction yields, respectively.
(§3) The procedure was performed according to the protocol reported by Chae and coworkers (Nat. Methods 2010, 7, 1003-1008).
CMP-Sia was expressed as a fusion protein with a C-terminal GFP in FGY217 Saccharomyces cerevisiae cells. Cell lysis was conducted by using a cell disrupter (Constant Systems) and the protein samples were subjected to centrifugation at 15,000 g for 10 mins to remove unbroken cells and debris. Subsequently, the membranes were harvested by ultracentrifugation at 150,000 g for 45 min. The membranes were resuspended in 50 mM Tris-HCl (pH 7.6), 1 mM EDTA, 0.6 M sorbitol and the protein concentration was estimated using a BCA kit (Pierce). The membranes were incubated with OG or DDM at 1.0%, or GDN at 2.0% for 1 hr at 4° C. A fluorescence value was measured for each sample before and after ultracentrifugation at 150,000 g for 1 h. The solubilization efficiency was calculated via the fluorescence measurements of the soluble supernatant/the total sample.

β2AR WT = molecular target: T3, β2AR WT (Homo sapiens, UniProt P07550); assay: Extraction of β2AR WT from insect cell membranes; settings: 1 wt %; western blotting
T3 construct: made in house; host or cells: Sf9 insect cells (baculovirus); lysed cells and membranes extracted directly with amphiphile
Description: as §2, §3
as §1, with “Supernatant was removed and assayed for protein concentration by DC protein assay (Bio-Rad).” left out

[5] = stated in the bR protocol; cited from earlier work

T1 sequence (P07550 whole entry): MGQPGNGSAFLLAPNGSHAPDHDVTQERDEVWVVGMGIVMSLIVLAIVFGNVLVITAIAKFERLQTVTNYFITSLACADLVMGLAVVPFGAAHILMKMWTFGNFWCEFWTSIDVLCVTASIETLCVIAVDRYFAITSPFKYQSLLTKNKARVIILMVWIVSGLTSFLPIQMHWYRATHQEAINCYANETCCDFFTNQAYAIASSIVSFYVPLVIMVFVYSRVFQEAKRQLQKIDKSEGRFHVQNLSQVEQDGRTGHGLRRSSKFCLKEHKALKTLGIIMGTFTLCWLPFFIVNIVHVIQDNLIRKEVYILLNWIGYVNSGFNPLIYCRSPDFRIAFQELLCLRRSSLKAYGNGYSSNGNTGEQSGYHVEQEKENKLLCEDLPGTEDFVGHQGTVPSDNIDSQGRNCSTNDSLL
T3 sequence (P07550 whole entry): as above

SMILES | CMC [1] [µM] | CMC (wt %) [1] [wt %] | Rh (nm), hydrodynamic radius of micelles [2] [nm] | also measured
CO[C@@H]1CC[C@@]2(C)[C@H](CC[C@@H]3[C@@H]2CC[C@]2(C)[C@@H]([C@H](C)CCC(=O)NC(CO[C@@H]4OC(CO)C(O[C@@H]5OC(CO)[C@@H](O)[C@H](O)C5O)[C@@H](O)C4O)CO[C@@H]4OC(CO)[C@@H](O[C@H]5OC(CO)[C@@H](O)[C@H](O)C5O)[C@H](O)C4O)CC[C@@H]32)C1 (stereo partly drawn) [GLC-1] | ~52 | ~0.006 | 3.22 ± 0.03 | 
CO[C@@H]1CC[C@@]2(C)[C@H](CC[C@@H]3[C@@H]2CC[C@]2(C)C(C(C)CCCC(CO[C@@H]4OC(CO)C(O[C@@H]5OC(CO)[C@@H](O)[C@H](O)C5O)[C@@H](O)C4O)CO[C@@H]4OC(CO)[C@@H](O[C@H]5OC(CO)[C@@H](O)[C@H](O)C5O)[C@H](O)C4O)CC[C@@H]32)C1 (stereo partly drawn) [GLC-3] | ~7.1 | ~0.00077 | 3.27 ± 0.08 | β2AR WT initial activity (wild type β2AR (β2AR WT); extracted with 1 wt % or 2 wt % amphiphile, [3H]-dihydroalprenolol binding): initial activity similar to that of DDM; β2AR WT activity over 72 hours (wild type β2AR (β2AR WT); solubilized samples stored at 4° C.): activity was maintained over 72 hours
CCCCCCCCCCC(CCCCCCCCCC)(CO[C@@H]1O[C@H](CO)[C@@H](O[C@H]2O[C@H](CO)[C@@H](O)[C@H](O)[C@H]2O)[C@H](O)[C@H]1O)CO[C@@H]1O[C@H](CO)[C@@H](O[C@H]2O[C@H](CO)[C@@H](O)[C@H](O)[C@H]2O)[C@H](O)[C@H]1O [MNG-3, reference compound] |  |  |  | δOR-T4L ligand binding activity after solubilization [3]: higher activity than DDM-solubilized δOR-T4L
CCCCCCCCO[C@@H]1O[C@H](CO)[C@@H](O)[C@H](O)[C@H]1O [OG, octyl-β-D-glucoside, reference compound] |  |  |  | CMP-Sia-GFP extraction yield [4]: ~50%; β2AR WT detected after extraction (β2AR WT): only a very small amount of β2AR WT was detected
CCCCCCCCS[C@@H]1O[C@H](CO)[C@@H](O)[C@H](O)[C@H]1O [OTG, octyl-β-D-thioglucoside] |  |  |  | CMC [5]: 0.28 wt %
